Test results from patent US6255497A, “Method for the inhibition of ALDH-I useful in the treatment of alcohol dependence or alcohol abuse” (priority 1998, dated 2001).
Values after ≈ are worked out from the molar mass of the structure shown. Like-named read-outs stand apart in the source and are kept apart here. Values belong to the molecule of their own block, whether it stands above or below them.

Tests used:
[1] = target: T1, ALDH-I (Homo sapiens, UniProt P05091); experiment: Inhibition kinetics of ALDH-I, initial velocity method, formaldehyde as substrate; conditions: for potency as ALDH-I inhibitor, fold less than that of daidzin / relative potency as ALDH-I inhibitor, in words: compared with daidzin
T1 sequence (P05091 18-517): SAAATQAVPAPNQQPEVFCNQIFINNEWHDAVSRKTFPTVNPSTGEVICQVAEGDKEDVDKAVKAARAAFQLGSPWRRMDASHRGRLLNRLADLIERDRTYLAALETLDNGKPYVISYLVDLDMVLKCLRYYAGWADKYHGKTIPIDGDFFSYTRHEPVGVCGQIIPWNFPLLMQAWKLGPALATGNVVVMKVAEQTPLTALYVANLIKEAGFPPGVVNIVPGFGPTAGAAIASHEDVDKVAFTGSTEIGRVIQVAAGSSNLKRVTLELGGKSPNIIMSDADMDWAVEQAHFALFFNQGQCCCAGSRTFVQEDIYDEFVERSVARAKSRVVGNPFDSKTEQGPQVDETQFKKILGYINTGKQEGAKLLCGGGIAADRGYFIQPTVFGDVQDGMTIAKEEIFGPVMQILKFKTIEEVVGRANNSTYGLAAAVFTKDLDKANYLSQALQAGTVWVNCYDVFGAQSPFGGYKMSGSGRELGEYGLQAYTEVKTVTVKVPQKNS
Protocol: The kinetic data were analyzed by standard graphical methods.

[2] = target: T2, ALDH-II (Homo sapiens, UniProt P00352); experiment: ALDH-II inhibition by structurally related compounds, acetaldehyde as substrate; type: biochemical; set-up: A liver sample (50 g wet weight) with the usual Caucasian ALDH phenotype (both ALDH-I and ALDH-II present); from tissue; host or cells: human liver (autopsy), purified by CM-52, AMP-agarose and DEAE HPLC
T2 sequence (P00352 1-501): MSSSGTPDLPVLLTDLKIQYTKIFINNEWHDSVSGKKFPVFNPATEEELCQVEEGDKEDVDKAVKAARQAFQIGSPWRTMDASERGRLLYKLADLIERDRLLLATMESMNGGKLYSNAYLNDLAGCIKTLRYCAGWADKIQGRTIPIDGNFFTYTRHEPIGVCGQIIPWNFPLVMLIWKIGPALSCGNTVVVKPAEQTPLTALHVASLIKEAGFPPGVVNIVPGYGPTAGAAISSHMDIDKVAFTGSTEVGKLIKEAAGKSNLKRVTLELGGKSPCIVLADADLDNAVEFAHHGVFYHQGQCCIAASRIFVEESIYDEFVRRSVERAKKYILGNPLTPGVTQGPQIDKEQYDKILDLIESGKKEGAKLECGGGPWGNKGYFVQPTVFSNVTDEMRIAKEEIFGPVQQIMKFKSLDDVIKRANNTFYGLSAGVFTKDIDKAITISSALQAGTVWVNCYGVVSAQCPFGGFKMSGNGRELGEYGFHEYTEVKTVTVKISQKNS
Protocol: (§1) *ALDH activities were assayed at 25° C. in 0.1 M sodium
(§2) pyrophosphate buffer pH 9.5 containins 0.15 M KCl, 1 mM NAD^+, various
(§3) concentrations of inhibitors and 5 and 200 μM acetaldehyde for ALDH-I
(§4) and ALDH-II, respectively.
(§5) For the study of the inhibition of ALDH-I by structurally related compounds to generate the data shown in Tables IV and V, each individual compound was dissolved at different concentrations in methanol and was added to the assay medium as 10 μL aliquots. For controls, 10 […] of methanol was added to the assay medium. In a standard ALDH-I assay, the assay medium contains 0.1 M sodium pyrophosphate pH 9.5, 0.15 M KCl, 1 mM NAD^+, 1% methanol, 5 μM acetaldehyde, 5-10 nM ALDH-I and various concentrations of inhibitor. The enzyme reaction rates were measured by monitoring the production of NADH at 340 nm (ε=6.22 mM^-1 cm^-1) with a Varian Cary 219 spectrophotometer thermostated at 25° C. (Fong et al., 1989, supra). The inhibition of ALDH-I by the inhibitors was calculated as: [formula]
(§6) where Vo is the enzyme reaction rate measured in the absence of inhibitor, and where Vi is the enzyme reaction rate measured in the presence of inhibitor. […] IC50 values are related to the underlying Ki values.

[3] = target: T2, ALDH-II; experiment: Inhibition kinetics of ALDH-II, initial velocity method, formaldehyde as substrate
Protocol: (§7) The inhibition kinetics were studied by the initial velocity method (Dixon and Webb, 1979, Enzymes, 3rd ed., Longman, Great Britain). […] The initial reaction rates were measured in a pH 9.5 assay medium 0.1 11 in glycine-NaOH, 0. […] The enzyme reaction rates were followed by monitoring the production of NADH at 340 nm (ε-6.22 mM^-1 cm^-1) with a Varian Cary 219 spectrophotometer thermostated at 25° C. The kinetic data were analyzed by standard graphical methods.

[4] = target: T1, ALDH-I; experiment: ALDH-I inhibition by structurally related compounds, acetaldehyde as substrate; type: biochemical; set-up: A liver sample (50 g wet weight) with the usual Caucasian ALDH phenotype (both ALDH-I and ALDH-II present); from tissue; host or cells: human liver (autopsy), purified by CM-52, AMP-agarose and DEAE HPLC
Protocol: as §1, §2, §3, §4
For controls, 10 .eta.L of methanol was added to the assay medium. In a standard ALDH-I assay, the assay medium contains 0.1 M sodium pyrophosphate pH 9.5, 0.15 M KCl, 1 mM NAD^+, 1% methanol, 5 μM acetaldehyde, 5-10 nM ALDH-I and various concentrations of inhibitor. […] (Fong et al., 1989, supra). The inhibition of ALDH-I by the inhibitors was calculated as: [formula]
as §6

[5] = system: ALDH-I or ALDH-II; experiment: Survey of structurally related compounds for ALDH inhibition; type: biochemical, human
Protocol: as §5, §6

[6] = target: T2, ALDH-II; experiment: Competitive inhibition of ALDH-II with acetaldehyde as substrate; type: biochemical; set-up: A liver sample (50 g wet weight) with the usual Caucasian ALDH phenotype (both ALDH-I and ALDH-II present); from tissue; host or cells: human liver (autopsy), purified by CM-52, AMP-agarose and DEAE HPLC; conditions: acetaldehyde as substrate, competitive; read-out: Ki, ALDH-II
[7] = physchem; conditions: water
[8] = system: golden hamsters; experiment: Dose effect on free choice ethanol intake in golden hamsters, i.p.; type: in vivo, golden hamster; conditions: 10 mg/day, i.p.
Excerpt: It is common practice in quantitative drug studies with rodents to use intraperitoneal (i.p.) administration to deliver drug doses accurately (Goodman and Gilman, 1975, The Pharmacological Basis of Therapeutics, 5th ed., Macmillan, N.Y., p. 8). In particular, this method avoids variability introduced by technical difficulties of oral administration via feeding (full versus empty stomach, etc.), variations in drug transport in the gastrointestinal tract (variations in intestinal fauna and flora, individual variations in absorption rate expected of outbred animals, etc.) and other factors. […] As a control 1 ml of sterile saline was injected i.p. daily during the baseline period (typically 7-9 days) that establishes drinking preference without the drug. Saline injection i.p. had no effect on the drinking behavior of golden hamsters. Ethanol was provided as a 20% solution. Hamsters could be used more than once (but were not used more than three times) in a cycle of baseline saline injections followed by drug injections, each cycle with the drug at a different dose.
The response to daidzin treatment was computed as:
% Response=(Vo -Vd)×100/Vo

[9] = target: T1, ALDH-I; experiment: Reversibility of ALDH-I inhibition (preincubation, then dilution); type: biochemical; set-up: A liver sample (50 g wet weight) with the usual Caucasian ALDH phenotype (both ALDH-I and ALDH-II present); from tissue; host or cells: human liver (autopsy), purified by CM-52, AMP-agarose and DEAE HPLC
[10] = substrate: C=O; experiment: purified protein, by the assay type; conditions: pH 9.5; 25.0 °C
Protocol: as §7

[11] = 200 μM acetaldehyde, 1 mM NAD+, pH 9.5, 25° C., read-out: IC50, ALDH-II
[12] = 5 μM acetaldehyde, 1 mM NAD+, pH 9.5, 25° C., read-out: IC50, ALDH-I

IC50 [2, 11]: 20 µM
Molecule: COc1ccc(-c2coc3cc(O[C@@H]4O[C@H](CO)[C@@H](O)[C@H](O)[C@H]4O)ccc3c2=O)cc1 [Ononin]

IC50 [2, 11]: 2 µM | IC50 [4, 12]: 10 µM
Molecule: O=c1c(-c2ccccc2)c(-c2ccccc2)oc2cc(O)ccc12 [3-Phenyl-7-hydroxyflavone]

Ki [6]: 0.185 µM | solubility [7]: 9 mM (≈ 3950 µg/mL)
Molecule: O=C(O)CCCCCCCCCCOc1ccc2c(=O)c(-c3ccc(O)cc3)coc2c1 [Daidzein 7-(ω-carboxydecyl) ether, daidzein 7-(ω-carboxydecyl)ether]

IC50 [2, 11]: 1.5 µM | IC50 [4, 12]: 5 µM
Molecule: CC(C)c1ccc(-c2coc3ccccc3c2=O)cc1 [4'-Isopropylisoflavone]

Ki [6]: 0.45 µM | solubility [7]: 26 mM (≈ 9580 µg/mL)
Molecule: O=C(O)CCCCCOc1ccc2c(=O)c(-c3ccc(O)cc3)coc2c1 [Daidzein 7-(ω-carboxypentyl) ether, daidzein 7-(ω-carboxypentyl) ether]
suppression of alcohol intake, hamster C14 ([8]; trained hamster C14): 56% | suppression of alcohol intake, hamster D6 ([8]; trained hamster D6): 72%

IC50 [2, 11]: 0.3 µM
Molecule: O=c1cc(-c2ccccc2)c2ccc(O)cc2o1 [7-Hydroxy-4-phenylcoumarin]

The remaining lines, values behind:

Molecule: COc1cc(O)c2c(=O)c(-c3ccc(O)cc3)coc2c1 [Prunetin]
Ki [1]: 0.3 µM | selectivity of ALDH inhibition [1]: selectively inhibited ALDH-I | potency as ALDH-I inhibitor, fold less than that of daidzin [1]: approximately 10 fold | relative potency as ALDH-I inhibitor, in words [1]: nearly an order of magnitude less potent as an inhibitor than daidzin | IC50 [2]: 12 µM | Ki [3]: 12 µM | IC50 [4]: 1 µM

Molecule: O=c1cc(-c2ccccc2)oc2ccccc12 [Flavone]
IC50 [2, 11]: 5 µM | IC50 [4, 12]: 10 µM

Molecule: CC1=C(c2ccccc2)C(=O)OC2CC(Cl)CCC12 (stereo not shown) [7-Chloro-4A,5,6,7,8,8A-hexahydro-4-methyl-3-phenylcoumarin]
IC50 [2, 11]: 1 µM | IC50 [4, 12]: 1 µM

Molecule: c1ccc(-c2ccc3ccccc3n2)cc1 [2-phenylquinoline]
ALDH inhibition [5]: did not inhibit

Molecule: CC(=O)Oc1ccc2c(=O)c(Cc3ccccc3)c(C)oc2c1OC(C)=O [3-Benzyl-7,8-diacetoxy-2-methylchromone]
IC50 [2, 11]: 3 µM | IC50 [4, 12]: 10 µM

Molecule: CN1CC(=O)NC1=O [1-methylhydantoin]
ALDH inhibition [5]: not inhibitory

Molecule: COc1ccc(-c2cc(=O)c3c(O)cc(O)cc3o2)cc1 [Acacetin]
IC50 [2, 11]: 5 µM | IC50 [4, 12]: 5 µM

Molecule: Cc1ccc2c(c1)OC(=O)CC2c1ccccc1 (stereo not shown) [7-Methyl-4-phenyl-3,4-dihydrocoumarin]
IC50 [2, 11]: 0.5 µM

Molecule: NC(=O)NC1NC(=O)NC1=O (stereo not shown) [allantoin]
ALDH inhibition [5]: not inhibitory

Molecule: O=c1c(-c2ccc(O)cc2)coc2cc(O[C@@H]3O[C@H](CO)[C@@H](O)[C@H](O)[C@H]3O)cc(O)c12 [Genistin]
reversibility of ALDH-I inhibition [9]: reversible selective inhibitor of ALDH-I | Ki [1]: 0.36 µM | selectivity of ALDH inhibition [1]: selectively inhibited ALDH-I | potency as ALDH-I inhibitor, fold less than that of daidzin [1]: approximately 10 fold | relative potency as ALDH-I inhibitor, in words [1]: nearly an order of magnitude less potent as an inhibitor than daidzin | IC50 [2]: > 20 µM | Ki [3]: > 20 µM | IC50 [4, 12]: 2 µM

B1: human ALDH-I (Homo sapiens) (protein)
chain: T1 sequence (P05091 18-517)
Km [10]: 0.8 mM
